Assay results from US8816101B2, “Paraconic acids as pigmentation activators” (Centre National de la Recherche Scientifique—CNRS, priority 2010, dated 2014).

Test system: B16 murine cells
Assay: Melanin content of B16 murine cells by spectrophotometry (pigmenting activity in vitro)
Format: cell-based
Conditions: B16 cells treated 72 h
Protocol: Protocol: The melanin content of B16 murine cells is determined by spectrophotometry.
The cells are seeded in 10-cm Petri dishes at a density of 1×10^6 per dish and are treated every 24 hours for 72 hours with the specified dose of purified lichenic substance, dissolved in DMSO. […] After treatment, the cells are washed twice with PBS and recovered by treatment with trypsin. The number of cells recovered is estimated by counting using a haemocytometer. One fraction is used for determining the melanin content and a second fraction for the concentration of protein. The melanin content is determined from the absorbance at 405 nm (VersaMax Microplate Reader, Molecular Devices, USA) of the cellular solution after solubilization of the melanin with 1M sodium hydroxide, for 15 min at 80° C. The protein concentration is determined according to the protocol of the “DC Protein Assay” kit developed by Bio-Rad Laboratories, USA. For each sample treated, the melanin content is referred to the amount of protein and expressed as percentage relative to the control situation (DMSO solution only). Each measurement is performed in triplicate and each experiment is carried out independently for a minimum of 3 times.
The molecules tested, with their concentrations expressed in μM, are shown on the abscissa.
On the ordinate, the melanin content is expressed as percentage relative to the control (DMSO alone=concentration of 0.1%).

SMILES	pigmentation relative to the control (melanin content) (0.5 μM, control DMSO 0.1%) [%]	depigmentation (0.5 μM, relative to DMSO control) [%]	pro-pigmenting effect (% of pigmentation) (5 μM, relative to DMSO control) [%]
C=C1C(=O)O[C@H](CCCCCCCCCCCCC)[C@H]1C(=O)O [protolichesterinic acid, (+)-Protolichesterinic acid]	72	28	–
CCCCCCCCCCCCC[C@H]1OC(=O)C(C)=C1C(=O)O [lichesterinic acid, (+)-Lichesterinic acid]	–	–	26
